Results from patent publication US11046716B2, “Beta-lactamase inhibitors” (priority 2015, dated 2021).
Like-named read-outs stand apart in the source and are kept apart here.

Assays:
[1] = test system: K. pneumoniae expressing the class A carbapenemase KPC-2 and the class B carbapenemase VIM-4; experiment: Broth microdilution MIC assay with meropenem, K. pneumoniae KPC-2 and VIM-4; type: cell-based; details: for MIC (μg/mL) of Exemplary Compounds in presence of fixed β-lactams: K. p. A-1797 KPC-2 VIM-4: Fixed Mero (meropenem) 4 μg/mL
Excerpt: (§1) To determine the ability of test compounds to potentiate the inhibition of the growth of bacterial strains that produce beta-lactamase enzymes in the presence of a β-lactam antibiotic, classic cell based broth microdilution MIC assays were employed. Six bacteria strains producing beta-lactamase enzymes were used: E. coli expressing the Class A Extended Spectrum Beta-Lactamase (ESBL) CTX-M-15, E. cloacae expressing the Class C P99, K. pneumoniae expressing the Class A carbapenemase KPC-2, P. aeruginosa expressing the Class B carbapenemase VIM-2, K. pneumoniae expressing the class A carbapenemase KPC-2 and the class B carbapenemase VIM-4, and K. pneumoniae producing the Class D carbapenemase OXA-48. The assay was conducted in Cation Adjusted Mueller Hinton Broth (CAMHB, BD #212322, BD Diagnostic Systems, Sparks, Md.). Bacteria strains were grown for 3-5 hours in CAMBH broth. Test compounds (Examples 1-94) were added to a microtiter plate in 2-fold serial dilutions in CAMHB in a final concentration range of 16 μg/mL to 0.125 μg/ml. An overlay of CAMHB containing a Beta-lactam was added to the compounds at a final static concentration of 4 μg/ml. […] In addition to the titration of test compounds the MICs of a panel of control beta-lactams is also tested to ensure the strains are behaving consistently from test to test. Once the test compound and antibiotics are added the plates can be inoculated according to CLSI broth microdilution method. After inoculation the plates are incubated for 16-20 hours at 37° C. then the Minimal Inhibitory Concentration (MIC) of the test compound is determined visually.
(§2) Using the methodology described above, examples of the current invention were evaluated for their ability to inhibit the growth of β-lactamase-producing bacteria in the presence of a β-lactam antibiotic.

KPC-2 = target: T1, KPC-2 (Klebsiella pneumoniae, UniProt Q9F663); experiment: β-lactamase enzyme inhibition assay, KPC-2 (imipenem substrate); type: biochemical
T1 construct: made in house; host or cells: E. coli BL21(DE3)
T1 sequence (Q9F663 25-293, looked up): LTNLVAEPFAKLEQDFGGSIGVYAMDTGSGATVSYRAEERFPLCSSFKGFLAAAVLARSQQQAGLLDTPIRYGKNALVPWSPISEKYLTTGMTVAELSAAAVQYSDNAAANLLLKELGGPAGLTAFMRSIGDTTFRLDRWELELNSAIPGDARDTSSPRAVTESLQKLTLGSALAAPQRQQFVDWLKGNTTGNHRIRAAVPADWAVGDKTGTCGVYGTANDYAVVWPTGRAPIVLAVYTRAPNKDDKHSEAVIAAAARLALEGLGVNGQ
Protocol: (§3) For SHV-5, Kpc-2, p99AmpC and OXA-1 β-lactamases, E. coli BL21(DE3) bacterial cells carrying expression plasmids (expressed as native untagged proteins) for the individual β-lactamases were grown in 1 L of Superbroth (Teknova Inc. Hollister, Calif.) supplemented with 100 μg/ml kanamycin selection and 1×5052 (0.5% glycerol, 0.05% glucose and 0.2% α-lactose) at 35° C. for 18-20 hours. Cells were harvested by centrifugation (4,000×g, 4° C., 20 min), resuspended in 50 ml of 10 mM HEPES pH 7.5 ( 1/20 of the initial volume). The cells were lysed by sonication (5 pulses of 45 seconds) at 45 W on ice. The lysates were clarified by centrifugation at 10,000×g for 40 minutes at 4° C. Samples were diluted 5-fold in 50 mM sodium acetate pH 5.0, stored overnight at 4° C., after which they were centrifuged at 10,000×g for 30 minutes to clarify, and filtered through 0.45 μm filters. The samples were loaded onto a 5 ml Capto S sepharose cation exchange column (GE Healthcare) pre-equilibrated with 50 mM sodium acetate pH 5.0. The column was washed with 5 column volumes of 50 mM sodium acetate pH 5.0 to wash out unbound protein and a linear gradient of NaCl (0 to 500 mM) was used to elute the protein (over 16 CV) from the column. Fractions were assayed for β-lactamase activity using Centa (Calbiochem, Gibbstown, N.J.) or Nitrocefin (EMD Millipore chemicals, Darmstadt, Germany) as a reporter β-lactamase substrate for activity in the isolated fractions. Active fractions were pooled, concentrated and further purified by gel filtration chromatography on a Superdex 75 prep grade gel filtration column (GE Healthcare, Piscataway, N.J.) pre-equilibrated in 50 mM Hepes pH 7.5, 150 mM NaCl. Active fractions were pooled concentrated, quantitated by BCA protein determination (Thermo Scientific, Rockford, Ill.), dialyzed into PBS and frozen at −80° C. in 20% glycerol until use.
(§4) An equal volume of diluted enzyme stock was added, and the plates were incubated at 37° C. for 15 min. Nitrocefin was used as substrate for p99 AmpC, VIM-2 and OXA-1 and dispensed into each well at a final concentration of 100 μM. Absorbance at 486 nm was immediately monitored for 10 min using a Biotek Powerwave XS2 microplate spectrophotometer using the GEN5 software package (Biotek Instruments, Winooski Vt.). In an analogous fashion, imipenem was used as substrate for Kpc-2 and Cefotaxime was used for SHV-5, while changes in absorbance upon hydrolysis of the β-lactam ring were monitored at 300 nm and 260 nm respectively in UV-transparent 96-well microtiter assay plates. Maximum rates of hydrolysis were compared to those in control wells (without inhibitors), and percentages of enzyme inhibition were calculated for each concentration of inhibitor. The concentration of inhibitor needed to reduce the initial rate of hydrolysis of substrate by 50% (IC50) was calculated as the residual activity of β-lactamase at 486 nm using GraFit version 7 kinetics software package (Erithacus Software, Surrey, UK).
(§5) Using the methodology described above, examples of the current invention were evaluated for their ability to inhibit β-lactamase enzymes from all four Ambler classifications (A through D). […] NT=Not tested.

AmpC = target: T2, AmpC (Enterobacter cloacae, UniProt P05364); experiment: β-lactamase enzyme inhibition assay, p99 AmpC (nitrocefin substrate); type: biochemical
T2 construct: made in house; host or cells: E. coli BL21(DE3)
T2 sequence (P05364 21-381): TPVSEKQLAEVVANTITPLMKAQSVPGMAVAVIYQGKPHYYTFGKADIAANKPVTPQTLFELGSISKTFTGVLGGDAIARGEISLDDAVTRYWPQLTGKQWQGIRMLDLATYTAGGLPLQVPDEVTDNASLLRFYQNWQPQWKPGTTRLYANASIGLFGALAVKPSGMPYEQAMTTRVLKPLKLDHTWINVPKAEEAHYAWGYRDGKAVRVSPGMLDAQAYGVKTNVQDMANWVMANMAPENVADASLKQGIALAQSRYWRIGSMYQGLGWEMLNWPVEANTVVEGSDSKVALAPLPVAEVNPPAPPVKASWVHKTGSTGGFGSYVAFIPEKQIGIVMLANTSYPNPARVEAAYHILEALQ
Protocol: as §3, §4, §5

OXA-48 = OXA-48 (UniProt Q6XEC0); experiment: β-lactamase enzyme inhibition assay, Class D oxacillinase; type: biochemical; details: read-out: OXA-48
[2] = test system: K. pneumoniae expressing the Class A carbapenemase KPC-2; experiment: Broth microdilution MIC assay with meropenem, K. pneumoniae KPC-2; type: cell-based; details: for MIC (μg/mL) of Exemplary Compounds in presence of fixed β-lactams: K. p. 156319 KPC-3: Fixed Mero (meropenem) 4 μg/mL
Excerpt: as §1, §2

SHV-5 = target: T3, SHV-5 (Klebsiella pneumoniae, UniProt P0A3M1); experiment: β-lactamase enzyme inhibition assay, SHV-5 (cefotaxime substrate); type: biochemical
T3 construct: made in house; host or cells: E. coli BL21(DE3)
T3 sequence (P0A3M1 22-286): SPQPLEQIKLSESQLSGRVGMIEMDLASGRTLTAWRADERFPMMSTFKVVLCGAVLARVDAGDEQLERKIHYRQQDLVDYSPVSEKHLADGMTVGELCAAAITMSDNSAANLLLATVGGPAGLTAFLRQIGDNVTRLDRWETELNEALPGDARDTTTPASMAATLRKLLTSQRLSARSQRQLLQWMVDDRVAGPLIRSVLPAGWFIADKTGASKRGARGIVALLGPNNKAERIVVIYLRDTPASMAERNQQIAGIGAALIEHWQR
Protocol: as §3, §4, §5

[3] = test system: K. pneumoniae producing the Class D carbapenemase OXA-48; experiment: Broth microdilution MIC assay with meropenem, K. pneumoniae OXA-48; type: cell-based; details: for MIC (μg/mL) of Exemplary Compounds in presence of fixed β-lactams: K. p. 11978 OXA-48: Fixed Mero (meropenem) 4 μg/mL
Excerpt: as §1, §2

[4] = test system: P. aeruginosa expressing the Class B carbapenemase VIM-2; experiment: Broth microdilution MIC assay with meropenem, P. aeruginosa VIM-2; type: cell-based; details: for MIC (μg/mL) of Exemplary Compounds in presence of fixed β-lactams: P. aerug. 2775 VIM-2: Fixed Mero (meropenem) 4 μg/mL
Excerpt: as §1, §2

[5] = test system: E. coli expressing the Class A Extended Spectrum Beta-Lactamase (ESBL) CTX-M-15; experiment: Broth microdilution MIC assay with ceftazidime, E. coli CTX-M-15; type: cell-based; details: Fixed CAZ (ceftazidime) 4 μg/mL; E. coli ESBL4 CTX-M-15
Excerpt: as §1, §2

VIM-2 = target: T4, VIM-2 (Escherichia coli, UniProt Q5U7L7); experiment: β-lactamase enzyme inhibition assay, VIM-2 (nitrocefin substrate); type: biochemical
T4 construct: made in house; host or cells: E. coli BL21(DE3)
Protocol: For Vim-2 metallo β-lactamase, the procedure was identical with the following exceptions, first the protein was not pH adjusted to pH 5 with 50 mM sodium acetate, second, the chromatography step was changed to a 5 ml Q sepharose anion exchange column pre-equilibrated with 50 mM Hepes pH 7.5, and elution of the protein was achieved by a linear gradient of NaCl (0-600 mM). Finally, the VIM-2 purification required a second run (3rd step) on the Q sepharose anion exchange column to achieve acceptable purity (>90%).
as §4, §5

[6] = Class A, imipenem substrate, 300 nm, read-out: KPC-2
[7] = Class B, nitrocefin substrate, 486 nm, read-out: VIM-2
[8] = Klebsiella pneumoniae, read-out: MIC alone

Compound | MIC (μg/mL) of Exemplary Compounds in presence of fixed β-lactams: K. p. A-1797 KPC-2 VIM-4 [1] | IC50 (KPC-2; [6]) | IC50 (AmpC) | IC50 (OXA-48) | MIC (μg/mL) of Exemplary Compounds in presence of fixed β-lactams: K. p. 156319 KPC-3 [2] | IC50 (SHV-5) | MIC (μg/mL) of Exemplary Compounds in presence of fixed β-lactams: K. p. 11978 OXA-48 [3] | MIC (μg/mL) of Exemplary Compounds in presence of fixed β-lactams: P. aerug. 2775 VIM-2 [4] | MIC (μg/mL) of Exemplary Compounds in presence of fixed β-lactams: E. coli ESBL4 CTX-M-15 [5] | IC50 (VIM-2; [7]) | IC50 (KPC-2) | IC50 (VIM-2) | MIC [1, 8] | MIC [2, 8] | MIC [3, 8] | MIC ([4]; Pseudomonas aeruginosa, read-out: MIC alone)
O=C(Cn1cc(CCO)nn1)N[C@H]1Cc2cccc(C(=O)O)c2OB1O [Example 5, (R)-2-hydroxy-3-(2-(4-(2-hydroxyethyl)-11,2,3-triazol-1-yl)acetamido)-3,4-dihydro-2H-benzo[e][1,2]oxaborinine-8-carboxylic acid] | B (B represents an MIC between 1 and 16 μg/mL inclusive) | < 100 nM | < 100 nM | 100 to 1000 nM | B (B represents an MIC between 1 and 16 μg/mL inclusive) | < 100 nM | B (B represents an MIC between 1 and 16 μg/mL inclusive) | B (B represents an MIC between 1 and 16 μg/mL inclusive) | C (C represents an MIC of <1 μg/mL) | 10000 to 100000 nM |  |  |  |  |  | 
NCCc1cn(CC(=O)N[C@H]2Cc3cccc(C(=O)O)c3OB2O)nn1 [Example 6, (R)-3-(2-(4-(2-aminoethyl)-1H-1,2,3-triazol-1-yl)acetamido)-2-hydroxy-3,4-dihydro-2H-benzo[e][1,2]oxaborinine-8-carboxylic acid] | B (B represents an MIC between 1 and 16 μg/mL inclusive) | < 100 nM | < 100 nM | 1000 to 10000 nM | C (C represents an MIC of <1 μg/mL) | 100 to 1000 nM | B (B represents an MIC between 1 and 16 μg/mL inclusive) | C (C represents an MIC of <1 μg/mL) | C (C represents an MIC of <1 μg/mL) | 1000 to 10000 nM |  |  |  |  |  | 
C[Si](C)(C)c1cn(CC(=O)N[C@H]2Cc3cccc(C(=O)O)c3OB2O)nn1 [Example 9, (R)-2-hydroxy-3-(2-(4-(trimethylsilyl)-1H-1,2,3-triazol-1-yl)acetamido)-3,4-dihydro-2H-benzo[e][1,2]oxaborinine-8-carboxylic acid] | A (A represents an MIC>16 μg/mL) |  | < 100 nM | 100 to 1000 nM | A (A represents an MIC>16 μg/mL) | < 100 nM | A (A represents an MIC>16 μg/mL) |  | B (B represents an MIC between 1 and 16 μg/mL inclusive) |  | < 100 nM | 1000 to 10000 nM |  |  |  | 
CCOC(=O)c1nnn(CC(=O)N[C@H]2Cc3cccc(C(=O)O)c3OB2O)c1C(=O)OCC [Example 11, (R)-3-(2-(4,5-bis(ethoxycarbonyl)-1H-1,2,3-triazol-1-yl)acetamido)-2-hydroxy-3,4-dihydro-2H-benzo[e][1,2]oxaborinine-8-carboxylic acid] | B (B represents an MIC between 1 and 16 μg/mL inclusive) | < 100 nM | < 100 nM | < 100 nM | B (B represents an MIC between 1 and 16 μg/mL inclusive) | < 100 nM | A (A represents an MIC>16 μg/mL) |  | B (B represents an MIC between 1 and 16 μg/mL inclusive) | 1000 to 10000 nM |  |  |  |  |  | 
C[C@@H](O)[C@H]1C(=O)N2C(C(=O)O)=C(S[C@@H]3CN[C@H](C(=O)N(C)C)C3)[C@H](C)[C@H]12 [Meropenem, meropenem, reference compound] |  |  |  |  |  |  |  |  |  |  |  |  | 64 µg/mL | > 128 µg/mL | 128 µg/mL | 16 µg/mL
